# Key:
# [1] = target: Poly [ADP-ribose] polymerase 2 (Homo sapiens, UniProt Q9UGN5); test: (§1) Biochemical Assay: PARP1 biochemical assay was purchased as a kit from Trevigen (cat.#4676-096-K) and used per manufacturers recommendations.PARP2 biochemical assay was purchased as a kit from BPS (cat.#80552) and used per manufacturers recommendations.
# [2] = target: Poly [ADP-ribose] polymerase 1 (Homo sapiens, UniProt P09874); test: as §1
# Chain of Poly [ADP-ribose] polymerase 1 (P09874 whole entry): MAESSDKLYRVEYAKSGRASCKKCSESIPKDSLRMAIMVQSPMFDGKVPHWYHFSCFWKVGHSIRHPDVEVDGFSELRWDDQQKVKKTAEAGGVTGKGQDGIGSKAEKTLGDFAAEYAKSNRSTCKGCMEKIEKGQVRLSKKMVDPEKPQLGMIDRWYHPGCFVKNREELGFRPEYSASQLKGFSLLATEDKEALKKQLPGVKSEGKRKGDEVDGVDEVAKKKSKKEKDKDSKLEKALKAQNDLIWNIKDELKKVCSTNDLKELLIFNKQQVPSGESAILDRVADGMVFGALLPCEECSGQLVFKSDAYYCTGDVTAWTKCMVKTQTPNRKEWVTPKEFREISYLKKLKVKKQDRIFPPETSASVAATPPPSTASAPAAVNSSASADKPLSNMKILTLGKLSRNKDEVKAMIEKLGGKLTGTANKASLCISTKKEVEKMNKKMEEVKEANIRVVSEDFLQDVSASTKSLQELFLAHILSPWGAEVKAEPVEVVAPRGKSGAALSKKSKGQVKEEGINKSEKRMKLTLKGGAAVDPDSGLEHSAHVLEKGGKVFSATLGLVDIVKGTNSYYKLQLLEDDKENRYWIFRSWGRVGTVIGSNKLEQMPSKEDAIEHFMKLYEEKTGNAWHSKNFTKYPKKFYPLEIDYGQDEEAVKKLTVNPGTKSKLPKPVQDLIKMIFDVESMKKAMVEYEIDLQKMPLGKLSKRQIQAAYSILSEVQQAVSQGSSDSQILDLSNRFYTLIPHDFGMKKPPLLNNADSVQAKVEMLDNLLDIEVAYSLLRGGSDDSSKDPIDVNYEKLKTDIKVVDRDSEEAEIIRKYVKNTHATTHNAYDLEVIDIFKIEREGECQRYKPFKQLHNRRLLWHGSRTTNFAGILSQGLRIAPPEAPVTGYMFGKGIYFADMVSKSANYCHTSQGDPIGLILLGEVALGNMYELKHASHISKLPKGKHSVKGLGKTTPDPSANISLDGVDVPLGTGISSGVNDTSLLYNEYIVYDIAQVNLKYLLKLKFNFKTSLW
# Chain of Poly [ADP-ribose] polymerase 2 (Q9UGN5 whole entry): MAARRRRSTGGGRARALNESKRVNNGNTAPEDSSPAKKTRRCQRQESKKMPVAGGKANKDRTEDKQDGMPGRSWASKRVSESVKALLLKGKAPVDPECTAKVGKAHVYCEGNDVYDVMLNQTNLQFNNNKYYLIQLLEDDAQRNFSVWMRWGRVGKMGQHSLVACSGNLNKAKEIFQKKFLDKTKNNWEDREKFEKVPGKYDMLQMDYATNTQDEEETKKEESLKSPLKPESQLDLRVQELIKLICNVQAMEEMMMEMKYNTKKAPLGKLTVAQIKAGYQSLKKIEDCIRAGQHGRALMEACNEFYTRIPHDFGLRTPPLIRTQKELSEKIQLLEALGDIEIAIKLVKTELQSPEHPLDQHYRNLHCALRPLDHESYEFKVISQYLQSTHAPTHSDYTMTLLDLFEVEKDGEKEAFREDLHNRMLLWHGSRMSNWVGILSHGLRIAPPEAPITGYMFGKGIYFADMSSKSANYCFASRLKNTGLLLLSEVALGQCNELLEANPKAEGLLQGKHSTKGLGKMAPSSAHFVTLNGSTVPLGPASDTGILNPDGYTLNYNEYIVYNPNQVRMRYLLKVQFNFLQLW
IC50 [1] [nM],IC50 [2] [nM],Compound
1440,5570,O=C(CCCc1nc2ccccc2c(=O)[nH]1)N1CCC(c2noc3ccc(F)cc23)CC1
3020,10200,O=C(CCSc1nc2ccccc2c(=O)[nH]1)N[C@H]1CC[C@H](c2nnc(-c3ccncc3)o2)CC1
3080,2260,O=C(CCc1nc2ccccc2c(=O)[nH]1)N[C@H]1CC[C@H](n2c(=O)oc3ccccc32)CC1
333,992,O=C(CCCc1nc2ccccc2c(=O)[nH]1)N1CCN(c2noc3ccccc23)CC1
–,> 85000,O=C(CCc1cc(=O)n2ccccc2n1)N[C@H]1CC[C@H](c2nnc(-c3ccccc3)o2)CC1
893,1290,O=C(CCCc1nc2ccccc2c(=O)[nH]1)N[C@H]1CC[C@H](Oc2ccccc2)C1
1370,2260,O=C(CCCc1nc2ccccc2c(=O)[nH]1)N1CCC(n2nnc3ccccc32)CC1
160,1780,COc1ccc2c(c1)[nH]c(=O)n2C1CCN(C(=O)CCCc2nc3ccccc3c(=O)[nH]2)CC1

Compound,IC50 [1] [nM],IC50 [2] [nM]
O=C1Nc2cc(Cl)ccc2C1C1CCN(C(=O)CCCc2nc3ccccc3c(=O)[nH]2)CC1 (racemic),251,7350

# — ChEMBL document CHEMBL5725203, “Quinazolinone compounds and derivatives thereof” (2016)
